Results reported in ChEMBL document CHEMBL4138123, “Design, synthesis and biological evaluation of novel pyrazolochalcones as potential modulators of PI3K/Akt/mTOR pathway and inducers of apoptosis in breast cancer cells” (Eur J Med Chem, 2017).

Assays:
Type in all cases: functional
Malme-3M [1] = assay: Cytotoxicity against human MALME-3M cells assessed as cell growth at 0.1 uM after 48 hrs by sulforhodamine B assay relative to control; conditions: read-out: Activity
RPMI-8226 = assay: Cytotoxicity against human RPMI8226 cells assessed as growth inhibition after 48 hrs by sulforhodamine B assay; conditions: RPMI-8226, 48 h
OVCAR-8 = assay: Cytotoxicity against human OVCAR8 cells assessed as growth inhibition after 48 hrs by sulforhodamine B assay; conditions: OVCAR-8, 48 h
MOLT-4 [2] = assay: Cytotoxicity against human MOLT4 cells assessed as growth inhibition after 48 hrs by sulforhodamine B assay; conditions: MOLT-4, 48 h; for CC50: read-out: LC50 (the source's name)
NCI-H460 = assay: Cytotoxicity against human NCI-H460 cells assessed as growth inhibition after 48 hrs by sulforhodamine B assay; conditions: NCI-H460, 48 h
A498 = assay: Cytotoxicity against human A498 cells assessed as cell growth at 10 uM after 48 hrs by sulforhodamine B assay relative to control; conditions: A498, 48 h, read-out: Activity
UACC-257 [3] = assay: Cytotoxicity against human UACC257 cells assessed as cell growth at 0.01 uM after 48 hrs by sulforhodamine B assay relative to control; conditions: UACC-257, 48 h, read-out: Activity
NCI-H226 = assay: Cytotoxicity against human NCI-H226 cells assessed as cell growth at 0.01 uM after 48 hrs by sulforhodamine B assay relative to control; conditions: NCI-H226, 48 h, read-out: Activity
SR [4] = assay: Cytotoxicity against human SR cells assessed as growth inhibition after 48 hrs by sulforhodamine B assay; conditions: for CC50: read-out: LC50 (the source's name)
SR [5] = assay: Cytotoxicity against human SR cells assessed as cell growth at 0.1 uM after 48 hrs by sulforhodamine B assay relative to control; conditions: read-out: Activity
UO-31 = assay: Cytotoxicity against human UO31 cells assessed as cell growth at 0.01 uM after 48 hrs by sulforhodamine B assay relative to control; conditions: UO-31, 48 h, read-out: Activity
U-251 [6] = assay: Cytotoxicity against human U251 cells assessed as cell growth at 1 uM after 48 hrs by sulforhodamine B assay relative to control; conditions: U-251, 48 h, read-out: Activity
MOLT-4 [7] = assay: Cytotoxicity against human MOLT4 cells assessed as cell growth at 100 uM after 48 hrs by sulforhodamine B assay relative to control; conditions: MOLT-4, 48 h, read-out: Activity
HCT-116 = assay: Cytotoxicity against human HCT116 cells assessed as cell growth at 100 uM after 48 hrs by sulforhodamine B assay relative to control; conditions: HCT-116, 48 h, read-out: Activity
SK-MEL-5 = assay: Cytotoxicity against human SK-MEL-5 cells assessed as cell growth at 100 uM after 48 hrs by sulforhodamine B assay relative to control; conditions: SK-MEL-5, 48 h, read-out: Activity
Malme-3M [8] = assay: Cytotoxicity against human MALME-3M cells assessed as growth inhibition after 48 hrs by sulforhodamine B assay
SK-OV-3 [9] = assay: Cytotoxicity against human SKOV3 cells assessed as cell growth at 0.1 uM after 48 hrs by sulforhodamine B assay relative to control; conditions: SK-OV-3, 48 h, read-out: Activity
CCRF-CEM = assay: Cytotoxicity against human CCRF-CEM cells assessed as cell growth at 1 uM after 48 hrs by sulforhodamine B assay relative to control; conditions: read-out: Activity
HT-29 = assay: Cytotoxicity against human HT-29 cells assessed as cell growth at 1 uM after 48 hrs by sulforhodamine B assay relative to control; conditions: HT-29, 48 h, read-out: Activity
MDA-MB-435 = assay: Cytotoxicity against human MDA-MB-435 cells assessed as cell growth at 0.1 uM after 48 hrs by sulforhodamine B assay relative to control; conditions: MDA-MB-435, 48 h, read-out: Activity
SK-OV-3 [10] = assay: Cytotoxicity against human SKOV3 cells assessed as cell growth at 100 uM after 48 hrs by sulforhodamine B assay relative to control; conditions: SK-OV-3, 48 h, read-out: Activity
SF-539 = assay: Cytotoxicity against human SF539 cells assessed as cell growth at 0.1 uM after 48 hrs by sulforhodamine B assay relative to control; conditions: SF-539, 48 h, read-out: Activity
RXF 393 = assay: Cytotoxicity against human RXF393 cells assessed as growth inhibition after 48 hrs by sulforhodamine B assay; conditions: RXF 393, 48 h
BT-549 [11] = assay: Cytotoxicity against human BT549 cells assessed as cell growth at 10 uM after 48 hrs by sulforhodamine B assay relative to control; conditions: BT-549, 48 h, read-out: Activity
UACC-257 [12] = assay: Cytotoxicity against human UACC257 cells assessed as cell growth at 10 uM after 48 hrs by sulforhodamine B assay relative to control; conditions: UACC-257, 48 h, read-out: Activity
HL-60(TB) [13] = assay: Cytotoxicity against human HL-60(TB) cells assessed as cell growth at 0.1 uM after 48 hrs by sulforhodamine B assay relative to control; conditions: HL-60, 48 h, read-out: Activity
A549 = assay: Cytotoxicity against human A549/ATCC cells assessed as cell growth at 100 uM after 48 hrs by sulforhodamine B assay relative to control; conditions: A549, 48 h, read-out: Activity
HL-60(TB) [14] = assay: Cytotoxicity against human HL-60(TB) cells assessed as cell growth at 0.01 uM after 48 hrs by sulforhodamine B assay relative to control; conditions: HL-60, 48 h, read-out: Activity
NCI-H322M = assay: Cytotoxicity against human NCI-H322M cells assessed as cell growth at 1 uM after 48 hrs by sulforhodamine B assay relative to control; conditions: read-out: Activity
HCT-15 [15] = assay: Cytotoxicity against human HCT15 cells assessed as cell growth at 0.01 uM after 48 hrs by sulforhodamine B assay relative to control; conditions: HCT-15, 48 h, read-out: Activity
ACHN = assay: Cytotoxicity against human ACHN cells assessed as cell growth at 10 uM after 48 hrs by sulforhodamine B assay relative to control; conditions: read-out: Activity
U-251 [16] = assay: Cytotoxicity against human U251 cells assessed as cell growth at 10 uM after 48 hrs by sulforhodamine B assay relative to control; conditions: U-251, 48 h, read-out: Activity
BT-549 [17] = assay: Cytotoxicity against human BT549 cells assessed as cell growth at 0.1 uM after 48 hrs by sulforhodamine B assay relative to control; conditions: BT-549, 48 h, read-out: Activity
HCT-15 [18] = assay: Cytotoxicity against human HCT15 cells assessed as growth inhibition after 48 hrs by sulforhodamine B assay; conditions: HCT-15, 48 h
MDA-MB-468 = assay: Cytotoxicity against human MDA-MB-468 cells assessed as cell growth at 1 uM after 48 hrs by sulforhodamine B assay relative to control; conditions: MDA-MB-468, 48 h, read-out: Activity
BT-549 [19] = assay: Cytotoxicity against human BT549 cells assessed as cell growth at 100 uM after 48 hrs by sulforhodamine B assay relative to control; conditions: BT-549, 48 h, read-out: Activity

COc1cc(-c2cc(/C=C/C(=O)c3ccc4c(c3)OCO4)[nH]n2)cc(OC)c1OC
growth at 0.1 µM (Malme-3M [1]): 91% | LC50 (RPMI-8226): > 100 µM | TGI (RPMI-8226): 2.94 µM | LC50 (OVCAR-8): > 100 µM | TGI (OVCAR-8): 11.1 µM | TGI (MOLT-4 [2]): 9.15 µM | CC50 (MOLT-4 [2]): > 100 µM | LC50 (NCI-H460): > 100 µM | TGI (NCI-H460): 5.1 µM | growth at 10 µM (A498): 9% | growth at 0.01 µM (UACC-257 [3]): 86% | growth at 0.01 µM (NCI-H226): 97% | TGI (SR [4]): > 100 µM | CC50 (SR [4]): > 100 µM | growth at 0.1 µM (SR [5]): 101% | growth at 0.01 µM (UO-31): 86% | growth at 1 µM (U-251 [6]): 85% | growth at 100 µM (MOLT-4 [7]): -10% | growth at 100 µM (HCT-116): 1% | growth at 100 µM (SK-MEL-5): 8% | LC50 (Malme-3M [8]): 84.5 µM | TGI (Malme-3M [8]): 20.8 µM | growth at 0.1 µM (SK-OV-3 [9]): 103% | growth at 1 µM (CCRF-CEM): 67% | growth at 1 µM (HT-29): 103% | growth at 0.1 µM (MDA-MB-435): 94% | growth at 100 µM (SK-OV-3 [10]): -47% | growth at 0.1 µM (SF-539): 99% | LC50 (concentration killing 50% of cells) (RXF 393): 5.55 µM | TGI (RXF 393): 2.87 µM | growth at 10 µM (BT-549 [11]): -20% | growth at 10 µM (UACC-257 [12]): 2% | growth at 0.1 µM (HL-60(TB) [13]): 95% | growth at 100 µM (A549): 8% | growth at 0.01 µM (HL-60(TB) [14]): 98% | growth at 1 µM (NCI-H322M): 93% | growth at 0.01 µM (HCT-15 [15]): 95% | growth at 10 µM (ACHN): -73% | growth at 10 µM (U-251 [16]): -31% | growth at 0.1 µM (BT-549 [17]): 99% | LC50 (HCT-15 [18]): > 100 µM | TGI (HCT-15 [18]): 7.19 µM | growth at 1 µM (MDA-MB-468): 74%

COc1ccc(-c2cc(/C=C/C(=O)c3ccc4c(c3)OCO4)[nH]n2)cc1OC
GI50 (RPMI-8226): 370 nM | GI50 (OVCAR-8): 2630 nM | GI50 (MOLT-4 [2]): 2200 nM | GI50 (NCI-H460): 600 nM | GI50 (SR [4]): 250 nM | GI50 (Malme-3M [8]): 2590 nM | GI50 (RXF 393): 1920 nM | GI50 (HCT-15 [18]): 1090 nM

COc1cc(-c2cc(/C=C/C(=O)c3ccc(Cl)c(Cl)c3)[nH]n2)cc(OC)c1OC
growth at 0.1 µM (Malme-3M [1]): 95% | LC50 (RPMI-8226): > 100 µM | TGI (RPMI-8226): 6.73 µM | LC50 (OVCAR-8): > 100 µM | TGI (OVCAR-8): 34 µM | TGI (MOLT-4 [2]): 40.6 µM | CC50 (MOLT-4 [2]): > 100 µM | LC50 (NCI-H460): > 100 µM | TGI (NCI-H460): 36.6 µM | growth at 10 µM (A498): 43% | growth at 0.01 µM (UACC-257 [3]): 96% | growth at 0.01 µM (NCI-H226): 103% | TGI (SR [4]): 13.5 µM | CC50 (SR [4]): 96 µM | growth at 0.1 µM (SR [5]): 89% | growth at 0.01 µM (UO-31): 85% | growth at 1 µM (U-251 [6]): 87% | growth at 100 µM (MOLT-4 [7]): -15% | growth at 100 µM (HCT-116): -32% | growth at 100 µM (SK-MEL-5): -30% | LC50 (Malme-3M [8]): > 100 µM | TGI (Malme-3M [8]): > 100 µM | growth at 0.1 µM (SK-OV-3 [9]): 104% | growth at 1 µM (CCRF-CEM): 71% | growth at 1 µM (HT-29): 96% | growth at 0.1 µM (MDA-MB-435): 96% | growth at 100 µM (SK-OV-3 [10]): -70% | growth at 0.1 µM (SF-539): 94% | LC50 (concentration killing 50% of cells) (RXF 393): 54.6 µM | TGI (RXF 393): 12.8 µM | growth at 100 µM (BT-549 [19]): -53% | growth at 10 µM (BT-549 [11]): 47% | growth at 10 µM (UACC-257 [12]): 66% | growth at 0.1 µM (HL-60(TB) [13]): 100% | growth at 100 µM (A549): 2% | growth at 0.01 µM (HL-60(TB) [14]): 105% | growth at 1 µM (NCI-H322M): 94% | growth at 0.01 µM (HCT-15 [15]): 69% | growth at 10 µM (ACHN): 67% | growth at 10 µM (U-251 [16]): 48% | growth at 0.1 µM (BT-549 [17]): 95% | growth at 1 µM (MDA-MB-468): 76%
